Reference: patent publication US11426371B2, “Compositions and methods for treating cancer” (University of Virginia Patent Foundation, priority 2017, dated 2022)
Read-outs that look alike come from different tables or passages of the source.

How the values were obtained:
[1] = tested on: KGI; assay: Cell viability, panel of AML cell lines; assay type: cell-based; conditions: Homo sapiens, KGI cells
Procedure: (§1) Representative human AML cell lines (FIG. 2A; upper and lower panels) HL60/VCR and (FIG. 2B; upper and lower panels) OCI-AML2 were treated with SACLAC for 24 and 48 hours. Viability was assessed by MTS assay at 24 and 48 hours and apoptosis was assessed by flow cytometry at 48 hours. Upper panels represent % viability and lower panels indicate % apoptosis.
(§2) Two representative human-derived AML cell lines, HL60/VCR and OCI-AML2, are shown. These studies have been expanded to a large panel of additional human AML cell lines (n=30, Table 1).

[2] = tested on: OCI-AML3; assay: Cell viability, panel of AML cell lines; assay type: cell-based; conditions: Homo sapiens, OCI-AML-3, OCI-AML3 cells
Procedure: as §1, §2

[3] = tested on: THP-1; assay: Cell viability, panel of AML cell lines; assay type: cell-based; conditions: Homo sapiens, THP-1 cells
Procedure: as §1, §2

[4] = tested on: AML cell lines (HL60/VCR, OCI-AML2, THP-1); assay: Viability of AML cell lines, MTS and Cell Titer Glo (FIGS. 2, 4, Table 2); assay type: cell-based, human; conditions: for EC50: Homo sapiens, 24 h
Procedure: as §1
(§3) AML cell lines and normal samples (PBMCs and/or CD34+ cells) were treated for 24 hours with SACLAC (FIG. 4A-7 cell lines) and similar AC inhibitor SABRAC (2-bromo-N-((2S,3R)-1,3-dihydroxyoctadecan-2-yl)acetamide) (FIG. 4B-four cell lines). Viability was assessed by MTS and Cell Titer Glo viability assays. EC50 values (FIG. 4C) were graphed to visualize fold-change between AML and normal cells with treatment of each compound. […] Cells tested for SABRAC were HL60/VCR and OCI-AML2 AML cell lines and two normal PBMC control samples (PBMC1 and PBMC2). The same four cell types were tested for SACLAC, as well as the AML cell line THP-1 and two normal CD34+ cell control samples (CD34+1 and CD34+2).
(§4) Next, we tested the toxicity of SACLAC and a similar published AC inhibitor SABRAC^17 to normal hematopoietic cells to ensure that AML cells are selectively targeted by the compound (FIG. 4A). […] This degree of selectivity was unexpected but extremely important for potential clinical use. […] This remarkable increase in selectivity is a surprising discovery that greatly exceeds the predicted similarity in compound behavior that one may expect with a simple substitution of one halogen for another (Cl for Br).

[5] = tested on: normal samples (PBMCs and/or CD34+ cells); assay: Viability of normal samples, MTS and Cell Titer Glo (FIG. 4, Table 2); assay type: cell-based; conditions: PBMC
Procedure: as §3, §4

[6] = tested on: HL60/VCR and OCI-AML2 AML cell lines; assay: Apoptosis in AML cell lines by flow cytometry; assay type: cell-based, human; conditions: 48 hours, dose-dependent
Procedure: as §1, §2

[7] = tested on: hAML cell lines; assay: Time course studies of apoptosis and mitochondrial membrane depolarization; assay type: cell-based, human
[8] = tested on: S1P and ceramide in HL60/VCR and OCI-AML2; assay: Lipid metabolites by mass spectrometry in AML cell lines; assay type: cell-based, human; conditions: HL60/VCR and OCI-AML2, 24 hours
Procedure: Representative human AML cell lines (FIG. 3A; upper and lower panels) HL60/VCR and (FIG. 3B; upper and lower panels) OCI-AML2 were treated with SACLAC for 24 hours. Concentrations of lipid metabolites were determined by mass spectrometry. *, p<0.05; **, p<0.01 (Student's t-test). Upper panels represent Lipid in pmol/mg protein and lower panels represent Ceramide in pmol/mg protein.
We also characterized lipid changes in response to SACLAC treatment in order to provide further evidence of potent AC inhibition (FIGS. 3A-3B). […] Thus, the inhibitor blocks a common mechanism of ceramide detoxification in AML and is likely to provide therapeutic benefit by facilitating ceramide accumulation and apoptotic death of these proliferative cells.

[9] = SACLAC serum/blood levels after i.p. or i.v. administration; assay type: in vivo, mouse
Procedure: FIG. 7 graphically depicts SACLAC levels in mouse blood following administration intraperitoneally (i.p.) at 40 mg/kg body weight or intravenously (i.v.) at 5 mg/kg body weight. The ordinate represents Concentration (nM) and the abscissa Time (hours). DMSO (dimethyl sulfoxide) and β-HPCD (2-hydroxypropyl […]) represent the vehicle for SACLAC delivery.
Serum concentrations of SACLAC were also determined following administration. (see FIG. 7). […] SACLAC was dissolved in dimethyl sulfoxide (DMSO) or 2-hydroxypropyl-β-cyclodextrin (β-HPCD). Serum levels were determined following injection of free SACLAC (i.p.—in DMSO at 40 mg/kg; or i.v.—5 mg/kg in β-HPCD). […] They also show our ability to generate and characterize in vitro functionality by modifying delivery and delivery systems, monitor PK and evolve our approaches based on experimental results in order to maximize in vivo efficacy.

[10] = tested on: MV4-11 hAML xenograft; assay: Human AML cell line mouse xenograft model; assay type: in vivo; conditions: 5 mg/kg i.v. daily M to F for 18 days in β-HPCD, MV4-11-engrafted NSG mice, p<0.05
[11] = target: T1, acid ceramidase (AC) (Homo sapiens, UniProt Q13510); assay: AC inhibition in lysates from cells overexpressing the enzyme; assay type: biochemical; design: expressed in transfected cells
T1 sequence (Q13510 143-395 limits assumed): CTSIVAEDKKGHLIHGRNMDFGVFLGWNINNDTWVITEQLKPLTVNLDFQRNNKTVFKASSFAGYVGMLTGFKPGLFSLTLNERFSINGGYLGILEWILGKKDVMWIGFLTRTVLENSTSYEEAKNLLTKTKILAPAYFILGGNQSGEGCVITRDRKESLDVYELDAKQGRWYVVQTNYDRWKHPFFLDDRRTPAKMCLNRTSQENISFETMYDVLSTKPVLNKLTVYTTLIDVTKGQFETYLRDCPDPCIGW
T1 sequence (Q13510 22-142 limits assumed): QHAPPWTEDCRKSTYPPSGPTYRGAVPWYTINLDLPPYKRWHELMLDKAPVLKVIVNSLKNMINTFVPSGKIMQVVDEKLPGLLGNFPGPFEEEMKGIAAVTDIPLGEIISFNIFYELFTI

[12] = target: T1, acid ceramidase (AC); assay: LC/MS analysis of tryptic digests of AC incubated with SACLAC; assay type: binding; design: expressed in transfected cells; conditions: peptide C,T,S,I,V,A,E,D,K

CCCCCCCCCCCCCCC[C@@H](O)[C@H](CO)NC(=O)CCl [SACLAC, 2-chloro-N-((2S,3R)-1,3-dihydroxyoctadecan-2-yl)acetamide]
EC50 ([1]; 24 h, read-out: EC50 24 h): 3.2 µM | EC50 ([1]; 48 h, read-out: EC50 48 h): 2.7 µM | EC50 ([2]; 24 h, read-out: EC50 24 h): 0.6 µM | EC50 ([2]; 48 h, read-out: EC50 48 h): 0.4 µM | EC50 ([3]; 24 h, read-out: EC50 24 h): 2.6 µM | EC50 ([3]; 48 h, read-out: EC50 48 h): 2.2 µM | viability ([4]; HL60/VCR and OCI-AML2, MTS, 24 and 48 hours, dose-dependent): reduced viability | EC50 ([4]; mean of AML cell lines, 24 hours, read-out: EC50 AML): 2.27 µM | EC50 ([4]; SACLAC: HL60/VCR, OCI-AML2, THP-1, SABRAC: HL60/VCR, OCI-AML2, order of cells not given, read-out: EC50, single AML cell lines (FIG. 4A, 4B)): 2.6 µM | EC50 ([5]; 24 h, mean of normal samples (PBMCs and/or CD34+ cells), 24 hours, read-out: EC50 Normal): 13.5 µM | EC50 ([5]; 24 h, normal controls at 24 h, mean ± spread, read-out: EC50, normal controls): 13.5 ± 7.1 µM | EC50 ([5]; n=10, read-out: mean EC50, normal PMBC and CD34+ controls): 6 µM | apoptosis [6]: induced apoptosis | mitochondrial membrane potential, time course ([7]; concurrent with apoptosis induction): mitochondrial membrane depolarization | apoptosis, time course ([7]; time course studies): apoptosis induction | S1P [8]: significantly reduced S1P | ceramide [8]: increased ceramide | uptake following i.p. injection ([9]; i.p. injection): suboptimal uptake | serum levels ([9]; i.p., 40 mg/kg in DMSO): low serum levels | serum levels ([9]; i.v., 5 mg/kg in β-HPCD, compared with i.p.): great improvement | leukemic burden (human CD45+ cells, YFP expression, percent double positive cells) [10]: reduced leukemic burden | IC50 ([11]; irreversible binding to its binding site, read-out: IC50): 0.0467 µM | IC50 ([11]; lysates from cells overexpressing the enzyme, read-out: IC50, AC inhibition): 0.046 µM | covalent modification of AC peptide [12]: formation of the expected lipid modified peptide
